Assay results from patent publication EP3634580B1, “COMPOSITIONS COMPRISING LACTULOSE FOR MAINTAINING OR IMPROVING GUT HEALTH IN HUMANS” (Fresenius Kabi Austria GmbH, priority 2017, dated 2018).

Columns and labels:
[1] = system: colon microbiota of human origin; experiment: TNO Intestinal Model (TIM-2), in vitro model of the proximal colon: sodium hydroxide consumption; type: cell-based; settings: for Cumulative sodium hydroxide consumption: mean of n = 2
Protocol: (§1) Crystalline lactulose was administered daily for 5 days to the TNO Intestinal Model (TIM-2), an in vitro model of the proximal colon. NaOH consumption, short-chain fatty acids (SCFA) production, ammonia production as well as relative abundance of microbiota were analyzed.
(§2) The substance administered in this study was lactulose crystals (S.C.M. Società Chimica Mugello S.r.l., Vicchio, Italy). Experiments without the addition of lactulose served as negative control.
(§3) The TNO Intestinal Model (TIM-2) is a dynamic in vitro model of the proximal colon. The TIM-2 system was inoculated with a highly metabolically active colon microbiota of human origin. In the system the following standardized conditions were simulated: body temperature; pH in the lumen of the proximal colon (pH 5.8); delivery of a substrate from the 'ileum' (SIEM; Standardized Ileum Efflux Medium); mixing and transport of the intestinal contents; anaerobiosis; absorption of water and absorption of fermentation products, metabolites and other low molecular weight compounds (via a semipermeable membrane inside the colon model).
(§4) SIEM simulates material passing the ileocecal valve in humans. It contained the major non-digestible carbohydrates (pectin, xylan, arabinogalactan, amylopectin, starch) found in a normal western diet as well as protein (bactopepton, casein), ox-bile, Tween 80 as well as vitamins and minerals. SIEM was added to the system at a speed of 2.5 mL/h and the speed of the dialysis liquid was 1.5 mL/min. During the experiment, the intestinal contents were mixed continuously by the peristaltic movements of the TIM-2 system. In order to simulate the transit of the chime from proximal to distal colon, 25 mL of the lumen was removed every 24 h and discarded.
(§5) Before performing each experiment, the system was inoculated with a standardized microbiota of human origin. This standardized microbiota was prepared using fecal donations from a group of 4 healthy volunteers (3 females, 1 male, age 38.8 ± 3.9 years; BMI (body mass index) 24.2 ± 1.5 kg/m^2). Individuals provided signed informed consent before participation, were non-smokers and had not used antibiotics, prebiotics, probiotics or laxatives within 1 month before the stool donation.
(§6) At the start of the adaptation period the microbiota was allowed to adapt to the model conditions and SIEM for 16 h. After the adaptation period the 120 h test period started in which lactulose was added to TIM-2 once daily.
(§7) Lactulose was added to the system at daily doses of 2 g, 3 g, 4 g, and 5 g lactulose. Each dose as well as the control experiment was studied in duplicate (n = 2). The test period of the TIM-2 experiments lasted 120 h (5 consecutive days).
The pH was kept at a value of 5.8 by automatic titration with 2 M NaOH, the consumption of NaOH was monitored.

Lactobacillus = experiment: TIM-2 microbiota composition by V4 16S rDNA amplicon sequencing; type: cell-based, human; settings: for Average number of the bacterial genus Lactobacillus: after 120 h of exposure in TIM-2, control 82
Protocol: as §1, §2, §3, §4, §5, §6, §7
(§8) At the beginning and end of the experiment (t = 0 h and t = 120 h) luminal samples were used to investigate the composition of the microbiota. The samples were snap frozen in liquid nitrogen and stored at ≤ -72 °C until analysis.
(§9) The bacterial population in the TIM-2 samples was analyzed using Next Generation sequencing. Total DNA from the collected TIM-2 lumen samples at the start (t = 0 h) and at the end (t = 120 h) of the experiments was isolated. To determine the recovery of bacterial DNA from the samples, a quantitative polymerase chain reaction (qPCR) using primers specific for the bacterial 16S rRNA gene was used. Changes in the microbiota composition were analyzed by using mass V4 16S rDNA amplicon sequencing. Processing of the sequencing data was done using the Mothur pipeline.

Bifidobacterium = experiment: as above; type: cell-based, human; settings: for Average number of the bacterial genus Bifidobacterium: after 120 h of exposure in TIM-2, control 28,345
Protocol: as §1, §2, §3, §4, §5, §6, §7, §8, §9

[2] = system: colon microbiota of human origin; experiment: TIM-2 in vitro model of the proximal colon: ammonia production; type: cell-based; settings: for ammonia production (in words): daily doses of 2 g, 3 g, 4 g, 5 g, 120 h test period, versus control; for Cumulative ammonia production: mean of n = 2
Protocol: as §1, §2, §3, §4, §5, §6, §7
Metabolites like the short-chain fatty acids (SCFA) and ammonia produced in TIM-2 were continuously removed from the lumen by a semipermeable membrane unit. This dialysate was collected at the start of the test period and after 24, 48, 72, 96, and 120 h.
Samples for ammonia analysis were centrifuged as described above. Ammonia was determined based on the Berthelot reaction.

[3] = after 120 h in TIM-2, versus control

Question: What does the source list for `OC[C@H]1O[C@@H](O[C@@H]2[C@@H](CO)OC(O)(CO)[C@H]2O)[C@H](O)[C@@H](O)[C@H]1O` (mixture of isomers) [Lactulose, lactulose]?
Answer: use of NaOH (in words) ([1]; daily doses of 2 g, 3 g, 4 g, 5 g, 120 h test period, versus control): dose dependent increased use of NaOH; Cumulative sodium hydroxide consumption ([1]; lactulose 2 g daily, 0 h, control 19): 19 mL; Cumulative sodium hydroxide consumption ([1]; lactulose 2 g daily, 24 h, control 48): 58 mL; Cumulative sodium hydroxide consumption ([1]; lactulose 2 g daily, 48 h, control 71): 89 mL; Cumulative sodium hydroxide consumption ([1]; lactulose 2 g daily, 72 h, control 90): 115 mL; Cumulative sodium hydroxide consumption ([1]; lactulose 2 g daily, 96 h, control 107): 139 mL; Cumulative sodium hydroxide consumption ([1]; lactulose 2 g daily, 120 h, control 125): 162 mL; Cumulative sodium hydroxide consumption ([1]; lactulose 3 g daily, 0 h, control 19): 20 mL; Cumulative sodium hydroxide consumption ([1]; lactulose 3 g daily, 24 h, control 48): 65 mL; Cumulative sodium hydroxide consumption ([1]; lactulose 3 g daily, 48 h, control 71): 105 mL; Cumulative sodium hydroxide consumption ([1]; lactulose 3 g daily, 72 h, control 90): 136 mL; Cumulative sodium hydroxide consumption ([1]; lactulose 3 g daily, 96 h, control 107): 169 mL; Cumulative sodium hydroxide consumption ([1]; lactulose 3 g daily, 120 h, control 125): 202 mL; Cumulative sodium hydroxide consumption ([1]; lactulose 4 g daily, 0 h, control 19): 20 mL; Cumulative sodium hydroxide consumption ([1]; lactulose 4 g daily, 24 h, control 48): 72 mL; Cumulative sodium hydroxide consumption ([1]; lactulose 4 g daily, 48 h, control 71): 113 mL; Cumulative sodium hydroxide consumption ([1]; lactulose 4 g daily, 72 h, control 90): 151 mL; Cumulative sodium hydroxide consumption ([1]; lactulose 4 g daily, 96 h, control 107): 185 mL; Cumulative sodium hydroxide consumption ([1]; lactulose 4 g daily, 120 h, control 125): 223 mL; Cumulative sodium hydroxide consumption ([1]; lactulose 5 g daily, 0 h, control 19): 18 mL; Cumulative sodium hydroxide consumption ([1]; lactulose 5 g daily, 24 h, control 48): 69 mL; Cumulative sodium hydroxide consumption ([1]; lactulose 5 g daily, 48 h, control 71): 117 mL; Cumulative sodium hydroxide consumption ([1]; lactulose 5 g daily, 72 h, control 90): 157 mL; Cumulative sodium hydroxide consumption ([1]; lactulose 5 g daily, 96 h, control 107): 193 mL; Cumulative sodium hydroxide consumption ([1]; lactulose 5 g daily, 120 h, control 125): 223 mL; abundance of Lactobacillus (in words) (Lactobacillus; [3]): increased the abundance; Average number of the bacterial genus Lactobacillus (Lactobacillus; lactulose 2 g daily): 1,623; Average number of the bacterial genus Lactobacillus (Lactobacillus; lactulose 3 g daily): 1,504; Average number of the bacterial genus Lactobacillus (Lactobacillus; lactulose 4 g daily): 12,047; Average number of the bacterial genus Lactobacillus (Lactobacillus; lactulose 5 g daily): 912; abundance of Bifidobacterium (in words) (Bifidobacterium; [3]): increased the abundance; Average number of the bacterial genus Bifidobacterium (Bifidobacterium; lactulose 2 g daily): 24,781; Average number of the bacterial genus Bifidobacterium (Bifidobacterium; lactulose 3 g daily): 17,424; Average number of the bacterial genus Bifidobacterium (Bifidobacterium; lactulose 4 g daily): 135,876; Average number of the bacterial genus Bifidobacterium (Bifidobacterium; lactulose 5 g daily): 116,792; ammonia production (in words) [2]: decreased the levels; ammonia production (in words) ([2]; listed as lactulose): decreased mean ammonia production; Cumulative ammonia production ([2]; lactulose 2 g daily, 0 h, control 0): 0 mmol; Cumulative ammonia production ([2]; lactulose 2 g daily, 24 h, control 10): 9 mmol; Cumulative ammonia production ([2]; lactulose 2 g daily, 48 h, control 31): 29 mmol; Cumulative ammonia production ([2]; lactulose 2 g daily, 72 h, control 55): 48 mmol; Cumulative ammonia production ([2]; lactulose 2 g daily, 96 h, control 82): 68 mmol; Cumulative ammonia production ([2]; lactulose 2 g daily, 120 h, control 108): 88 mmol; Cumulative ammonia production ([2]; lactulose 3 g daily, 0 h, control 0): 0 mmol; Cumulative ammonia production ([2]; lactulose 3 g daily, 24 h, control 10): 9 mmol; Cumulative ammonia production ([2]; lactulose 3 g daily, 48 h, control 31): 26 mmol; Cumulative ammonia production ([2]; lactulose 3 g daily, 72 h, control 55): 45 mmol; Cumulative ammonia production ([2]; lactulose 3 g daily, 96 h, control 82): 64 mmol; Cumulative ammonia production ([2]; lactulose 3 g daily, 120 h, control 108): 85 mmol; Cumulative ammonia production ([2]; lactulose 4 g daily, 0 h, control 0): 0 mmol; Cumulative ammonia production ([2]; lactulose 4 g daily, 24 h, control 10): 6 mmol; Cumulative ammonia production ([2]; lactulose 4 g daily, 48 h, control 31): 15 mmol; Cumulative ammonia production ([2]; lactulose 4 g daily, 72 h, control 55): 25 mmol; Cumulative ammonia production ([2]; lactulose 4 g daily, 96 h, control 82): 38 mmol; Cumulative ammonia production ([2]; lactulose 4 g daily, 120 h, control 108): 51 mmol; Cumulative ammonia production ([2]; lactulose 5 g daily, 0 h, control 0): 0 mmol; Cumulative ammonia production ([2]; lactulose 5 g daily, 24 h, control 10): 5 mmol; Cumulative ammonia production ([2]; lactulose 5 g daily, 48 h, control 31): 12 mmol; Cumulative ammonia production ([2]; lactulose 5 g daily, 72 h, control 55): 22 mmol; Cumulative ammonia production ([2]; lactulose 5 g daily, 96 h, control 82): 32 mmol; Cumulative ammonia production ([2]; lactulose 5 g daily, 120 h, control 108): 41 mmol
